Results on three molecules are retold here after US20240026461A1, “BCL10 MUTATIONS AS BIOMARKERS FOR TARGETED THERAPY IN B CELL LYMPHOMAS” (priority 2022, published 2024).

In one experiment the test system is OCI-LY10^R58Q. The experiment is described as follows: Growth inhibition assay (CellTiter Glo), OCI-Ly10 cells expressing BCL10 R58Q. The settings on record: Homo sapiens, 96 h, read-out: IC50, growth inhibition, BTK inhibitors. The experiment is classed as cell-based. Here is the method: (§1) DLBCL cell lines were cultured in exponential condition and the cell growth was determined by CellTiter Glo (Promega). 3000-5000 cells were seeded and cultured in each well of 384 well plate for 96 h and treated with compounds every 48 h. Luminescence was read at the endpoint with the Synergy NEO microplate reader (BioTek). The value of compound treated cells was normalized to their vehicle treated controls and then used to calculate IC50 in GraphPad Prism (RRID:SCR_002798).
(§2) Given the distinct functional profiles, CARD11 dependencies, and MALT1 activation effects of the BCL10 CARD and truncation mutants, the inventors designed experiments to evaluate whether, and to what extent, these mutant BCL10 proteins might confer BTK inhibitor resistance. Isogenic ABC-DLBCL cells expressing BCL10WT, BCL10^R58Q and BCL10^E140X proteins were treated with escalating doses of three chemically distinct covalent BTK inhibitors: ibrutinib, acalabrutinib, or zanubrutinib. The cellular proliferation rates of the treated cells were measured using an ATP fluorescence assay after 96 hours of drug exposure.
(§3) Isogenic BCL10^WT, BCL10^R58Q and BCL10^E140X ABC-DLBCLs were exposed to increasing concentrations of each of these compounds for 96 hours.

For another experiment, the system named is OCI-LY10^E140X. Briefly: Growth inhibition assay (CellTiter Glo), OCI-Ly10 cells expressing BCL10 E140X. The experiment is classed as cell-based. The following applies: Homo sapiens, 96 h, read-out: IC50, growth inhibition, BTK inhibitors. As to the method: as §1, §2, §3
The subject of the next experiment is OCI-LY10^WT. Briefly: Growth inhibition assay (CellTiter Glo), OCI-Ly10 cells expressing BCL10 WT. The settings on record: Homo sapiens, 96 h, read-out: IC50, growth inhibition, BTK inhibitors. The format is cell-based. Here is the method: as §1, §2, §3
For orientation: Cellular ATP, detected with luciferase, serves as a proxy for viable cell number.

Experiment [1] relates to BCL10^WT expressing ABC-DLBCL xenografts. The experiment is described as follows: Xenograft, ibrutinib treatment, BCL10^WT tumors. The experiment is classed as in vivo, mice. The following applies: ibrutinib 37mpk, oral gavage, Q.D. From the text: (§4) FIG. 6A-6K illustrate that BCL10 gain-of-function mutant lymphomas are resistant to upstream Bruton's tyrosine kinase (BTK) inhibitors. FIG. 6A illustrates growth inhibition assays of human diffuse large B-cell lymphoma (HBL1) cells and OCI-Ly10 lymphoma cells expressing wild type or mutant BCL10 protein in response to the BTK inhibitor Acalabrutinib. X axis, concentration of compound (M); Y axis, inhibition of cell growth normalized to vehicle treated cells. *p<0.05; **p<0.01; ****p<0.0001; ns, not significant. FIG. 6B illustrates growth inhibition assays of human diffuse large B-cell lymphoma (HBL1) cells and OCI-Ly10 lymphoma cells expressing wild type or mutant BCL10 protein in response to the BTK inhibitor Zanubrutinib. […] FIG. 6D illustrates luciferase activity measured in the MALT1 GloSensor reporter cell lines upon BTK inhibitor Acalabrutinib treatment. […] FIG. 6E illustrates luciferase activity measured in the MALT1 GloSensor reporter cell lines upon BTK inhibitor Zanubrutinib treatment. […] FIG. 6F illustrates luciferase activity measured in the MALT1 GloSensor reporter cell lines upon BTK inhibitor Ibrutinib treatment. […] AUC was calculated with Prism. FIG. 6J graphically illustrates tumor weight measured at the endpoint of tumors formed from xenografts of HBL1 cells expressing WT and mutant BCL10 (n=5-6/group). […]

Experiment [2] concerns BCL10^R58Q expressing ABC-DLBCL xenografts. The experiment is described as follows: Xenograft, ibrutinib treatment, BCL10^R58Q tumors. The experiment is classed as in vivo, mice. The following applies: ibrutinib 37mpk, oral gavage, Q.D.
From the text: as §4

The subject of a further experiment is HBL1^WT. The experiment is described as follows: Growth inhibition assay (CellTiter Glo), HBL1 cells expressing BCL10 WT. The experiment is classed as cell-based. The settings on record: Homo sapiens, 96 h, read-out: IC50, growth inhibition, BTK inhibitors. Here is the method: as §1, §2, §3
Experiment [3] concerns BCL10^E140X expressing ABC-DLBCL xenografts. The experiment is described as follows: Xenograft, ibrutinib treatment, BCL10^E140X tumors. The format is in vivo, mice. The following applies: ibrutinib 37mpk, oral gavage, Q.D.
From the text: as §4

Another experiment concerns HBL1^R58Q. The experiment is described as follows: Growth inhibition assay (CellTiter Glo), HBL1 cells expressing BCL10 R58Q. The experiment is classed as cell-based. The following applies: Homo sapiens, 96 h, read-out: IC50, growth inhibition, BTK inhibitors. Here is the method: as §1, §2, §3
Another experiment has as its system HBL1^E140X. The experiment is described as follows: Growth inhibition assay (CellTiter Glo), HBL1 cells expressing BCL10 E140X. The experiment is classed as cell-based. The following applies: Homo sapiens, 96 h, read-out: IC50, growth inhibition, BTK inhibitors. Here is the method:
as §1, §2, §3

For experiment [4], the target named is T1, MALT1 (of the lymphoma cell lysates, detected with anti-MALT1) (UniProt Q9UDY8 2-824, limits assumed).
T1 construct: Cellular MALT1 co-precipitated or co-fractionated with Flag-BCL10; HBL1 is called a human lymphoma line
T1 sequence (looked up): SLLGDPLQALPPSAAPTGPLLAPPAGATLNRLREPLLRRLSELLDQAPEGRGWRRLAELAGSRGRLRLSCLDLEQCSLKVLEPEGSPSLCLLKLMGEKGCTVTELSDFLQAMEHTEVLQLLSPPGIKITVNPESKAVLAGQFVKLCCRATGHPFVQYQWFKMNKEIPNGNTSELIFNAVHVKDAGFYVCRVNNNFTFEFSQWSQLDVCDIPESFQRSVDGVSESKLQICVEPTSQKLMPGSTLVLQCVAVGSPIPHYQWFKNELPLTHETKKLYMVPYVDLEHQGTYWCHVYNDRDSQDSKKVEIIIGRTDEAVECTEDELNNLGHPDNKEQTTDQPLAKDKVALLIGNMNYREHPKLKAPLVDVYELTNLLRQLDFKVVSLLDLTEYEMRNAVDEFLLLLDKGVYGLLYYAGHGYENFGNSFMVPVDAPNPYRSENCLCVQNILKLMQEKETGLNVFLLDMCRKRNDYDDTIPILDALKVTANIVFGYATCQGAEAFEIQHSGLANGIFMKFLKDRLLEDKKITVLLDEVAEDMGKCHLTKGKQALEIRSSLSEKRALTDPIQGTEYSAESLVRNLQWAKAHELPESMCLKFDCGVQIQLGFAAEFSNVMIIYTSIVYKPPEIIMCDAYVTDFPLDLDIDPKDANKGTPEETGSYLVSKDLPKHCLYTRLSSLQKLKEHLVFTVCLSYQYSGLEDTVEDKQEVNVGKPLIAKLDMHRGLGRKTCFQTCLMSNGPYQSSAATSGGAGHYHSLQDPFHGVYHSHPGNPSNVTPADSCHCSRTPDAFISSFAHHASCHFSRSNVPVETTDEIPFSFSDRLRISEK
The experiment is described as follows: anti-Flag co-immunoprecipitation from Raji cells, anti-MALT1 blot. Here is the method:
Lymphoma cells (10⁸) were collected, washed with cold PBS and resuspended with lysis buffer (1% NP40, 10% glycerol, 150 mM NaCl, 20 mM Tris-HCL pH 7.5, and freshly added protease inhibitors). The lysates were centrifuged at 15,000 g, 4° C. for 15 min and the supernatant was then collected and incubated with 50 μL equilibrated anti-Flag magnetic beads (Sigma-Aldrich Cat #M8823, RRID:AB_2637089) at 4° C. for 3 h. The beads were washed 3 times with lysis buffer and followed by 3 times washing with the lysis buffer without NP40. SDS loading buffer without […] reagent was added and boiled at 95° C. for 5 min. The elution was added for […] (final 10%), and ready to run western blot after boiling at 95° C. for 5 min.
To investigate how the truncation mutants might affect CBM complex formation, Flag-tagged wild type and mutant forms of BCL10 were expressed in Raji cells, which lack constitutive B-cell receptor (BCR) signaling. Anti-Flag co-immunoprecipitations were performed on cell lysates. […] In contrast, there was less binding of MALT1 to BCL10^E140X, as well as to the similar BCL10^{K146Nfs*2} truncation mutant (FIG. 4A).

In another experiment the target is T2, MALT1 (Ig1-Ig2) (human, UniProt Q9UDY8 125-309).
T2 construct: domain: Ig1-Ig2; also called Ig1-Ig2 construct of MALT1; MALT1 (207-309)
T2 sequence (looked up): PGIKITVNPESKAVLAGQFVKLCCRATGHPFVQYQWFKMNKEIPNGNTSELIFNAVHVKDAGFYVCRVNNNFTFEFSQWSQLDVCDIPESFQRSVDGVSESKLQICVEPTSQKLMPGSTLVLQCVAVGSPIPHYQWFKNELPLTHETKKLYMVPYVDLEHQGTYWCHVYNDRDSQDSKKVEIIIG
The experiment is described as follows: His pull-down after co-expression in E. coli, Coomassie-stained SDS-PAGE. Here is the method: The inventors designed experiments to determine whether there were additional MALT1-binding sites on BCL10 at its largely unstructured C-terminus. The C-terminal region was divided into two halves and MALT1 pull-down studies were performed. […] Of note, unlike the interaction between BCL10 CARD and MALT1 death domain (DD) in the filamentous form, the interaction between BCL10 C-terminal region and MALT1 Ig1-Ig2 is monomeric as assessed by gel filtration chromatography of the complex.

As usually defined, the IC50 is the concentration needed to halve the response being measured. With `C=CC(=O)N1CCC[C@@H](n2nc(-c3ccc(Oc4ccccc4)cc3)c3c(N)ncnc32)C1` [Ibrutinib], the half-maximal inhibitory concentration (IC50) with OCI-LY10^R58Q turned out to be 2.2 nM; in the experiment on OCI-LY10^E140X, 3.3 nM; in the experiment with OCI-LY10^WT it was 0.66 nM; in the experiment with HBL1^WT, 4 nM; with HBL1^R58Q it was 6.1 nM; in the experiment on HBL1^E140X, 11 nM. The “tumor growth of xenografts” value is recorded as “suppressed growth” in [1], “expected growth suppression” in experiment [1] (listed as ibrutinib), “no significant anti-tumor effect” in experiment [2] and “no significant anti-tumor effect” in experiment [3].

B1: Flag-BCL10^E140X (other)
chain: MEPTAPSLTEEDLTEVKKDALENLRVYLCEKIIAERHFDHLRAKKILSREDTEEISCRTSSRKRAGKLLDYLQENPKGLDTLVESIRREKTQNFLIQKITDEVLKLRNIKLEHLKGLKCSSCEPFPDGATNNLSRSNSD
notes: Range 1-139 follows from the name E140X (stop codon at position 140); Expressed in Raji and HBL1 cells; also called Flag tagged E140X; truncating mutant at position 140; not shown: Flag tag
In the case of B1, the binding result in experiment [4] is reported as “binds”.

B2: His-tagged BCL10 (116-164) (other)
chain: GLKCSSCEPFPDGATNNLSRSNSDESNFSEKLRASTVMYHPEGESSTTP
notes: Co-expressed with MALT1 Ig1-Ig2 in E. coli; not shown: His tag
For B2, the binding result with MALT1 (Ig1-Ig2) is recorded as “no binding”.
